# Patent US20140309400A1, “Use of Cell-Permeable Peptide Inhibitors of the JNK Signal Transduction Pathway for the Treatment of Dry Eye Syndrome” (Xigen Inflammation Ltd., priority 2011, published 2014)
# Non-standard residues stand in square brackets, D forms with d.
# Experiments:
# Assay type in all cases: in vivo, female C57BL/6 mice
# [1] = system: mouse model of scopolamine-induced dry eye; assay: Phenol red thread tear test (PRTT) in scopolamine-induced dry eye mice; settings: for Mean PRTT AUC: TID, OU, 5 μL/eye, AUC Day 7-21
# Description: The study consisted of a total of 5 groups of female C57BL/6 mice, comprising 4 groups of 12 mice each and an additional group of 4 mice. Bilateral short-term dry eye was induced by a combination of scopolamine hydrobromide (Sigma-Aldrich Corp., St. Louis, Mo.) injection (subcutaneous (SC), four times daily, 0.5 mg/dose, Days 0-21) and by exposing mice to the drying environment of constant air draft. Starting on Day 1, mice of Groups 1-4 were treated three times daily (TID) for 21 days with bilateral topical ocular (oculus uterque; OU) administration (5 μL/eye/dose) of vehicle (0.9% sterile saline; negative control article); or the peptide of SEQ ID NO: 11 (0.06%, 0.25% and 0.6%). Mice of Group 5 were maintained as un-induced, (no dry eye) untreated controls. During the in-life (treatment) period, clinical observations were recorded once daily; slit-lamp examination (SLE) with corneal fluorescein staining, tear break-up time test (TBUT), and phenol red thread test (PRTT) were performed three times per week. Necropsies were performed on Day 22; eyes, eye lids, conjunctivae, and lacrimal glands were collected from both eyes of each animal. Tissues from the right eyes (oculus dexter, OD) were fixed and then evaluated microscopically. Tissues from the left eyes (oculus sinister; OS) were flash-frozen in liquid nitrogen and stored frozen at −80° C. for possible subsequent analyses. Tear production was measured three times a week in both eyes using PRTT test strips (Zone-Quick; Menicon, Nagoya, Japan). Prior to the first treatment of the day, a thread was applied to the lateral canthus of the conjunctival fornix of each eye for 30 seconds under slit-lamp biomicroscopy. Tear migration up the tread (i.e., the length of the wetted cotton thread) was measured using a millimeter scale.
# [2] = system: mouse model of scopolamine-induced dry eye; assay: Histopathology of the right eye (cornea) at necropsy Day 22 in scopolamine-induced dry eye mice
# Description: The study consisted of a total of 5 groups of female C57BL/6 mice, comprising 4 groups of 12 mice each and an additional group of 4 mice. Bilateral short-term dry eye was induced by a combination of scopolamine hydrobromide (Sigma-Aldrich Corp., St. Louis, Mo.) injection (subcutaneous (SC), four times daily, 0.5 mg/dose, Days 0-21) and by exposing mice to the drying environment of constant air draft. Starting on Day 1, mice of Groups 1-4 were treated three times daily (TID) for 21 days with bilateral topical ocular (oculus uterque; OU) administration (5 μL/eye/dose) of vehicle (0.9% sterile saline; negative control article); or the peptide of SEQ ID NO: 11 (0.06%, 0.25% and 0.6%). […] During the in-life (treatment) period, clinical observations were recorded once daily; slit-lamp examination (SLE) with corneal fluorescein staining, tear break-up time test (TBUT), and phenol red thread test (PRTT) were performed three times per week. […] Tissues from the right eyes (oculus dexter, OD) were fixed and then evaluated microscopically. […] Stained slides were evaluated via light microscopy. […] These tissues were scored for injury based upon a 0-4 scale, with 0 being normal, 1 being minimal, 2 being mild, 3 being moderate, and 4 being severe. […] Conjunctivae were scored for erosion and inflammation as well as presence or absence of goblet cells.
# [3] = system: mouse model of scopolamine-induced dry eye; assay: Tear break-up time (TBUT) test in scopolamine-induced dry eye mice; settings: for Mean Calculated TBUT AUC: TID, OU, 5 μL/eye, Days 1 to 21
# Description: The study consisted of a total of 5 groups of female C57BL/6 mice, comprising 4 groups of 12 mice each and an additional group of 4 mice. Bilateral short-term dry eye was induced by a combination of scopolamine hydrobromide (Sigma-Aldrich Corp., St. Louis, Mo.) injection (subcutaneous (SC), four times daily, 0.5 mg/dose, Days 0-21) and by exposing mice to the drying environment of constant air draft. Starting on Day 1, mice of Groups 1-4 were treated three times daily (TID) for 21 days with bilateral topical ocular (oculus uterque; OU) administration (5 μL/eye/dose) of vehicle (0.9% sterile saline; negative control article); or the peptide of SEQ ID NO: 11 (0.06%, 0.25% and 0.6%). Mice of Group 5 were maintained as un-induced, (no dry eye) untreated controls. During the in-life (treatment) period, clinical observations were recorded once daily; slit-lamp examination (SLE) with corneal fluorescein staining, tear break-up time test (TBUT), and phenol red thread test (PRTT) were performed three times per week. Necropsies were performed on Day 22; eyes, eye lids, conjunctivae, and lacrimal glands were collected from both eyes of each animal. Tissues from the right eyes (oculus dexter, OD) were fixed and then evaluated microscopically. Tissues from the left eyes (oculus sinister; OS) were flash-frozen in liquid nitrogen and stored frozen at −80° C. for possible subsequent analyses. The TBUT test was conducted three times weekly by measuring the time elapsed in seconds between a complete blink after application of fluorescein to the cornea and the appearance of the first random dry spot in the tear film. […] At least ninety seconds later, corneal epithelial damage was graded using a slit-lamp with a cobalt blue filter after another drop of 0.1% fluorescein was reapplied to the cornea; the cornea then was scored per the Draize ocular scale.
substance,measurement,setting,value
NH2-DQSRPVQPFLNLTTPRKPRPPRRRQRRKKRG-COOH (H-[dD][dQ][dS][dR][dP][dV][dQ][dP][dF][dL][dN][dL][dT][dT][dP][dR][dK][dP][dR][dP][dP][dR][dR][dR][dQ][dR][dR][dK][dK][dR]G-OH) [SEQ ID NO: 11],Dose dependence of PRTT,"[1]; 0.06%, 0.25% and 0.6% (Groups 2, 3 and 4)",generally dose-dependent increases in PRTT
same,Mean PRTT AUC,[1]; Group 2: 0.06% (low dose),39.96
same,Mean PRTT AUC,[1]; Group 3: 0.25% (mid dose),42.79
same,Mean PRTT AUC,[1]; Group 4: 0.6% (high dose),43.17
same,Corneal changes (histopathology) in comparison to the other treatment groups,"[2]; Group 2, low dose (0.06%)",slightly more severe
same,Reducing/ameliorating the corneal changes (histopathology),[2]; high dose (0.6%),most effective
same,Mean Calculated TBUT AUC,[3]; Group 2: 0.06% (low dose),88.54
same,Mean Calculated TBUT AUC,[3]; Group 3: 0.25% (mid dose),91.19
same,Mean Calculated TBUT AUC,[3]; Group 4: 0.6% (high dose),89.98
same,TBUT means compared with vehicle group,"[3]; low, medium and high dose (Groups 2, 3 and 4)",above the vehicle group
same,Dose dependence of TBUT,"[3]; low, mid and high dose levels (Groups 2-4)",generally dose-dependent increases in TBUT
